Assay results taken from patent publication US10293004B2, “Butyrate-producing bacterium and use thereof” (KABUSHIKI KAISHA YAKULT HONSHA, priority 2014, dated 2019).

What was measured:
[1] = Amount of butyrate produced by culture in PYA medium supplemented with acetate and lactate; details: PYA medium (33 mM sodium acetate) with 40 mM sodium lactate, 37° C. 24 hours, minus PYA without lactate
Procedure: Each bacterial solution cultured in a PYGA liquid medium under the same conditions as those described in the preceding paragraph 1) was inoculated at 1% to a PYA medium containing 33 mM sodium acetate and further supplemented with 40 mM sodium lactate, followed by anaerobic culture at 37° C. for 24 hours. After the completion of the culture, the organic acid concentration in the culture solution was analyzed by ion-exclusion HPLC. The analysis conditions were the same as those described in the preceding paragraph 1). The amount of butyrate produced was calculated according to (Expression 2). Amount of butyrate produced=(Amount of butyrate produced by culture for 24 hours in a PYA medium supplemented with 40 mM sodium lactate)−(Amount of butyrate produced by culture for 24 hours in a PYA medium without 40 mM sodium lactate) (Expression 2)

[2] = Evaluation of ability to produce butyrate from indigestible saccharides (Example 3)
From the text: Galactooligosaccharide (GOS), maltitol, D-mannitol, lactitol, isomalt, isomaltulose, L-sorbose and D-sorbitol were used as indigestible saccharides. These indigestible saccharides used, except for GOS, were reagent grade. GOS used was commercially available Oligomate 55N (Yakult Pharmaceutical Industry Co., Ltd.) from which monosaccharide and lactose fractions (fractions digestible and absorbable by the upper gastrointestinal tract) had been removed using an activated carbon column. Specifically, a saccharide solution diluted with purified water was added to a column packed with activated carbon (manufactured by Wako Pure Chemical Industries, Ltd.) swollen in purified water, and the column was washed with a 2% ethanol solution, followed by the elution of an indigestible fraction with a 50% ethanol solution. The eluate was dried under reduced pressure, and the obtained GOS saccharide solution was used.
A. hadrus YIT 10092^T (DSM 3119^T), which is a type strain of A. hadrus (a typical human intestinal butyrate-producing bacterium), and two isolates were used.
Each of these bacterial strains was anaerobically cultured at 37° C. for 24 hours in a PYA medium containing 33 mM sodium acetate supplemented with 0.5% D-glucose (PYGA medium). The culture solution was inoculated at 1% to a PYA medium containing 0.5 (w/v) % of each indigestible saccharide (test medium), followed by anaerobic culture at 37° C. for 24 hours. After the completion of the culture, the organic acid concentration in the culture solution was analyzed by ion-exclusion HPLC. The analysis conditions were the same as those described above in Example 2. After the quantification of the organic acid concentration, the amount of butyrate produced from each indigestible saccharide and the ratio of butyrate to total short-chain fatty acids were calculated according to the following expressions. (Amount of butyrate produced)=(Amount of butyrate in the test medium after culture)−(Amount of butyrate in a PYA medium without each indigestible saccharide after culture) (Ratio of butyrate)=(Amount of butyrate in the test medium after culture)/((Amount of acetate+Amount of propionate+Amount of butyrate) in the test medium after culture)×100 (Expression 3)

[3] = Biochemical properties: saccharide fermentability (API-ZYM, Rapid ID32A API, API KENKI 20A); parameters: key: +: positive reaction; −: negative reaction; +^w: weak reaction
From the text: (§1) Commercially available API-ZYM, Rapid ID32A API, and API KENKI 20A (SYSMEX bioMerieux Co., Ltd.) were used in the testing of biochemical properties of various bacterial strains. The testing method followed the product manuals.

[4] = Biochemical properties: enzymatic activity (API-ZYM, Rapid ID32A API, API KENKI 20A); parameters: key: +: positive reaction; −: negative reaction; +^w: weak reaction
From the text: as §1

[5] = Production of butyrate by each bacterial strain from L-sorbose and D-xylitol (ion-exclusion HPLC); details: 24 hours, minus PYA blank
Procedure: (§2) A frozen stock solution of each bacterial strain (a 10% (w/v) skim milk-2% sodium glutamate solution in which bacterial cells were suspended) (cell count: 2.0 to 5.5×10^10 cells/mL) was thawed, and the solution was inoculated at 1% to 4 mL of a PY liquid medium supplemented with 33 mM sodium acetate and 0.5 (w/v) % glucose (PYGA medium), followed by anaerobic culture at 37° C. for 24 hours. After the culture, the culture solution was inoculated at 1% to a fresh PYGA medium, followed by anaerobic culture at 37° C. for 24 hours. After the culture, the turbidity (OD660) of the culture solution was measured. Then, the culture solution was inoculated at 1% to a PY medium containing 0.5 (w/v) % L-sorbose or D-xylitol and 33 mM sodium acetate (the medium containing L-sorbose: PYSA, and the medium containing D-xylitol: PYXA), followed by anaerobic culture at 37° C. for 24 hours. Then, the turbidity (OD660) was measured.
After the completion of the culture, the organic acid concentration in the culture solution was quantified by ion-exclusion HPLC. In this operation, a culture solution in a PY medium supplemented with sodium acetate but without L-sorbose or D-xylitol (PYA medium) was used as a blank.
(HPLC Analysis Conditions) • Eluent: 15 mM perchloric acid-7% acetonitrile • pH adjuster: 15 mM perchloric acid-60 mM • tris(hydroxymethyl)aminomethane-7% acetonitrile • Separation column: Organic acid analysis column RSpak KC- • 811×2 (manufactured by Showa Denko K.K.) • Column temperature: 42° C. • Injected sample volume: 10 μL • Flow rate: 1.0 mL/min • Analysis time: 35 min • Detector: Waters 432 electric conductivity detector • Cell temperature: 45° C.
The amount of butyrate produced was calculated according to (Expression 1). Amount of butyrate produced=(Amount of butyrate produced by culture for 24 hours in a PYSA or PYXA medium)−(Amount of butyrate produced by culture for 24 hours in a PYA medium) (Expression 1)

[6] = Turbidity (OD660) after anaerobic culture of bacterial strains in PYGA, PYSA or PYXA medium
Procedure: as §2

Question: Which “Amount of butyrate produced” value [1] does the source give for “A. hadrus (Eubacterium hadrum) YIT 12354 (NITE BP-01831)” here?
Answer: 16.5 mmol/L

Question: And the “ability to utilize indigestible saccharides” value ([2]; PYA medium with 0.5 (w/v) % of each indigestible saccharide, versus type strain, FIGS. 3 and 4)?
Answer: more than the type strain YIT 10092^T

Question: And the “Amount of butyrate produced” value ([2]; from indigestible saccharides, versus type strain, FIG. 3)?
Answer: larger

Question: And the “ratio of butyrate to total short-chain fatty acids” value ([2]; versus type strain YIT 10092^T, FIG. 4)?
Answer: higher than that of the type strain YIT 10092^T

Question: What about the Aesculin [3] of the same substance?
Answer: −

Question: What about the D-Cellobiose [3] of the same substance?
Answer: −

Question: And the D-Mannitol [3]?
Answer: +

Question: What about the D-Raffinose [3] of the same substance?
Answer: +^w

Question: And the D-Xylose [3]?
Answer: +

Question: What about the Glycerol [3] of the same substance?
Answer: −

Question: And the L-Arabinose [3]?
Answer: +

Question: And the L-Rhamnose [3]?
Answer: −

Question: What about the L-Sorbitol [3] of the same substance?
Answer: +

Question: What about the Mallose [3] of the same substance?
Answer: +^w

Question: What about the Salicin [3] of the same substance?
Answer: −

Question: What about the Acid phosphatase [4] of the same substance?
Answer: +

Question: What about the Alkaline phosphatase [4] of the same substance?
Answer: +

Question: And the “Esterase (C4)” value [4]?
Answer: −

Question: And the Naphthol-AS-B1-phosphohydrolase [4]?
Answer: +

Question: What about the α-Glucosidase [4] of the same substance?
Answer: −

Question: And the β-Galactosidase [4]?
Answer: +

Question: And the β-Galactosidase-6-phosphate [4]?
Answer: −

Question: What about the “Amount of butyrate produced” value ([5]; D-Xylitol 0.5 (w/v) %, PYXA medium) of the same substance?
Answer: 31.0 mmol/L

Question: And the “Amount of butyrate produced” value ([5]; L-Sorbose 0.5 (w/v) %, PYSA medium)?
Answer: 14.8 mmol/L

Question: And the “Turbidity (OD660)” value ([6]; after anaerobic culture at 37° C. for 24 hours in PYGA liquid medium)?
Answer: 2.76

Question: What about the “Turbidity (OD660)” value ([6]; anaerobic culture at 37° C. for 24 hours of 1% inoculum in PYSA (L-sorbose)) of the same substance?
Answer: 2.26

Question: And the “Turbidity (OD660)” value ([6]; anaerobic culture at 37° C. for 24 hours of 1% inoculum in PYXA (D-xylitol))?
Answer: 1.09
